Results on one substance are retold here after US11473151B2, “Diagnostic and therapeutic methods for cancer” (Genentech, Inc., priority 2017, dated 2022).

Entries after “also recorded” stand apart in the source; their conditions may differ.

For assay [1], the system named is UC, NSCLC, TNBC and PDAC patients. Nature of the assay: Validation of the 6-gene signature (6TBRS) in atezolizumab clinical trials (IMvigor210, POPLAR). It counts as in vivo, human. The conditions noted are these: patients with high expression of the 6-gene signature. From the text: We developed a pan-tissue 6-gene F-TBRS based on the 19-gene Pan-F-TBRS data described above but further prioritizing TGF-β pathway components (TGFB1 and TGFBR2) and targets (CTGF, ADAM19, ACTA2, and COMP). To validate the predictive value of the 6-gene signature, we calculated hazard ratios for prognostic effects (using univariate continuous Cox proportional hazards regression models) and predictive effects, and calculated hazard ratios for predictive effects (using the log-rank test with median cutoff) in atezolizumab clinical trials. […] See, e.g., FIGS. 6B and 6C, which show data from IMvigor210 and the POPLAR study (NCT01903993), respectively.

Assay [2] concerns metastatic urothelial carcinoma (mUC) patients. Nature of the assay: IMvigor210 single-arm phase II study of atezolizumab: response (RECIST v1.1) and overall survival. It is filed as in vivo, human. The procedure: Samples for this analysis were collected from IMvigor210, which was a single-arm phase II study investigating atezolizumab (1200 mg every 3 weeks (q3w)) in metastatic urothelial carcinoma (mUC) patients (Clinical Trial Identifier: NCT02108652). The primary endpoint of the trial was to achieve a partial response (PR) rate of over 10% (Response Evaluation Criteria In Solid Tumors (RECIST) v1.1). Patients who had failed previous platinum-based chemotherapy or previously untreated patients who were not eligible for platinum-based chemotherapy were eligible. The primary endpoint was met for both previously treated and untreated populations. It was a requirement for all patients to have tumor tissue taken in the 2 years prior to study entry. The tissues were initially used for PD-L1 analysis (SP142 antibody using the Ventana platform). PD-L1 positivity was defined as more that 5% of cells staining in the immune component of the tumor tissue. Additional tissue was used for exploratory analysis. All patients had measurable disease at baseline facilitating response assessment. RECIST v1.1 was used to assess response to therapy. Cross-sectional imaging was performed every 6 weeks. All patients gave […] for this analysis.
For investigation of the clinical activity of PD-L1 blockade with atezolizumab, 429 patients with advanced mUC were enrolled in a phase 2, single arm clinical trial (IMvigor210; NCT02108652). Objective response rate was assessed per RECIST v1.1 and served as a trial endpoint. […] Assessment of the association of PD-L1 expression on tumor-infiltrating immune cells (IC) on baseline tumors with response (objective response rate) was a co-primary endpoint. PD-L1 IC status was defined by the percentage of PD-L1-positive immune cells in the tumor microenvironment (TME): IC0 (<1%), IC1 (≥1% but <5%) and IC2+(≥5%).

As for “atezolizumab: anti-PD-L1 antibody (Genentech), CAS Registry Number 1422185-06-5, also known as MPDL3280A”, the results for the response/benefit from monotherapy result in assay [1] and in assay [1] (listed as atezolimumab) were “lack of benefit; also recorded: lack of response” and “lack of response”, respectively. Further, the “primary endpoint: partial response (PR) rate of over 10% (RECIST v1.1)” value in assay [2] (1200 mg q3w, previously treated and untreated mUC populations) was “met”. The response rate in assay [2] (Lund genomically unstable (GU) subtype) is 47.2%; in assay [2] (other Lund subtypes), 17.6%. The “overall survival (OS) benefit” value in assay [2] (high PD-L1 IC scores (IC2/3) relative to IC0/1) is on record as “Improved OS benefit”; in assay [2] (high TMB relative to low TMB, median TMB as cutoff) it was “improved OS benefit”. Further, the response result in assay [2] (high TGF-β 2-gene signature (TGFB1, TGFBR2)) is given as “lack of response”. Besides, the “overall survival (OS)” value in assay [2] (patients with both high TMB and high PD-L1 IC scores) is “Improved OS”. Moreover, the “complete response (CR) rate” value in assay [2] (tumors with high PD-L1 expression on IC (IC2+) versus other IC levels) was “significantly higher complete response (CR) rate; also recorded: highest CR rate”.
